Results as given in patent publication US8686146B2, “Azaindenoisoquinoline topoisomerase I inhibitors” (Purdue Research Foundation, priority 2012, dated 2014).
Structures can show the parent of a compound that is named as a salt. Where two headings read alike, the source gives them in different places.

Assays:
HOP-62 = experiment: NCI screen antiproliferative activity, lung HOP-62
Protocol: (§1) Cells of approximately 60 different human cancer cell lines were incubated for 48 h with five 10-fold dilutions of the tested compounds starting from 100 μM and then treated with sulforhodamine B dye. The ratios of recorded optical densities relative to that of the control were plotted as a function of the common logarithm of the tested compound concentrations. […] The GI50 and the mean graph midpoint (MGM) values of the prepared indenoisoquinolines in selected cell lines are presented in Table I.
(§2) The antiproliferative activity of each compound was determined in the National Cancer Institute (NCI) screen as described above. Cells of approximately 60 different human cancer cell lines were incubated for 48 h with five 10-fold dilutions of the test compounds starting from 100 μM, and then treated with sulforhodamine B dye. The ratios of recorded optical densities relative to those of the control were plotted as a function of the common logarithm of the tested compound concentrations. […] The GI50 and the mean graph midpoint (MGM) values of the prepared (aza)indeno-isoquinolines in selected cell lines are presented in Table 2.

OVCAR-3 = experiment: NCI screen antiproliferative activity, ovarian OVCAR-3
Protocol: as §1, §2

UACC-62 = experiment: NCI screen antiproliferative activity, melanoma UACC-62
Protocol: as §1, §2

MCF7 = experiment: NCI screen antiproliferative activity, breast MCF7
Protocol: as §1, §2

HCT-116 = experiment: NCI screen antiproliferative activity, colon HCT-116
Protocol: as §1, §2

SF-539 = experiment: NCI screen antiproliferative activity, CNS SF-539
Protocol: as §1, §2

DU-145 = experiment: NCI screen antiproliferative activity, prostate DU-145
Protocol: as §1, §2

SN12C = experiment: NCI screen antiproliferative activity, renal SN12C
Protocol: as §1, §2

[1] = test system: approximately 60 different human cancer cell lines; experiment: NCI screen, mean graph midpoint over all cell lines; assay type: cell-based; details: all human cancer cell lines successfully tested, 48 h
Protocol: as §1, §2

human recombinant Top1 = biological target: T1, human recombinant Top1 (Homo sapiens, UniProt P11387); experiment: Top1-mediated DNA cleavage assay; assay type: biochemical; details: semiquantitative, relative to compounds 1 and 2
T1 construct: made in house
T1 sequence (P11387 1-765): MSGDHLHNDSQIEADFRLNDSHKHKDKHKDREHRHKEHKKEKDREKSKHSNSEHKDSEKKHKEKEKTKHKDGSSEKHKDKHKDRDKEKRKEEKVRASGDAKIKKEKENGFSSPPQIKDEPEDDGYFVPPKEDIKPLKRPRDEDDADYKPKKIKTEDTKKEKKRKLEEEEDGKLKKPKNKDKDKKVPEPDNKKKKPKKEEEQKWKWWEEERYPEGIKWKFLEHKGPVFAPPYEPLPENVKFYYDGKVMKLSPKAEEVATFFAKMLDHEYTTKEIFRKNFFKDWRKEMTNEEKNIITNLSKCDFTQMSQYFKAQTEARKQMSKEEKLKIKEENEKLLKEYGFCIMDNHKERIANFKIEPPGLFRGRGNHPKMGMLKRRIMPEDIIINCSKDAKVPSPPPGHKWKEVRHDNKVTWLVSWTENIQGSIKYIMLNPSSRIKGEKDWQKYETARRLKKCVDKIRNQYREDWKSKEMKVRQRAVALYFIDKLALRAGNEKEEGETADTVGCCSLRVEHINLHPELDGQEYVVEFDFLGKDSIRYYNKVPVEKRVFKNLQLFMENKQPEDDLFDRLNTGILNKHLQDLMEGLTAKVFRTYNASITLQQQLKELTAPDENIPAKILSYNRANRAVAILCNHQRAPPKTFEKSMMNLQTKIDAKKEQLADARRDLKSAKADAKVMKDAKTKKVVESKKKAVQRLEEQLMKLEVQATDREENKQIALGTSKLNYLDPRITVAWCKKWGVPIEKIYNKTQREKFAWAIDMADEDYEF
Protocol: Unincorporated [^32P]dGTP was removed using mini Quick […] columns (Roche, Indianapolis, Ind.), and the eluate containing the […] DNA substrate was collected. […] Aliquots of each reaction mixture were subjected to 20% denaturing PAGE. […] The DNA fragments were separated on a denaturing gel. […] All of the target compounds were tested for induction of DNA damage in Top1-mediated DNA cleavage assays, as described above.

Top1 Cleavage (human recombinant Top1; Table 1)	Top1 Cleavage (human recombinant Top1; Table 2)	SMILES	GI50 (HOP-62; Homo sapiens, HOP-62, 48 h, read-out: cytotoxicity (GI50) lung HOP-62, 48 h, sulforhodamine B, single determination, Table 1) [nM]	GI50 (OVCAR-3; Homo sapiens, OVCAR-3, 48 h, read-out: cytotoxicity (GI50) ovarian OVCAR-3, 48 h, sulforhodamine B, single determination, Table 1) [nM]	GI50 (UACC-62; Homo sapiens, UACC-62, 48 h, read-out: cytotoxicity (GI50) melanoma UACC-62, 48 h, sulforhodamine B, single determination, Table 1) [nM]	GI50 (MCF7; Homo sapiens, MCF7, 48 h, read-out: cytotoxicity (GI50) breast MCF7, 48 h, sulforhodamine B, single determination, Table 1) [nM]	GI50 (HCT-116; Homo sapiens, HCT-116, 48 h, read-out: cytotoxicity (GI50) colon HCT-116, 48 h, sulforhodamine B, single determination, Table 1) [nM]	GI50 (SF-539; Homo sapiens, 48 h, read-out: cytotoxicity (GI50) CNS SF-539, 48 h, sulforhodamine B, single determination, Table 1) [nM]	GI50 (DU-145; Homo sapiens, DU-145, 48 h, read-out: cytotoxicity (GI50) prostate DU-145, 48 h, sulforhodamine B, single determination, Table 1) [nM]	GI50 (SN12C; Homo sapiens, SN12C, 48 h, read-out: cytotoxicity (GI50) renal SN12C, 48 h, sulforhodamine B, single determination, Table 1) [nM]	MGM (mean graph midpoint for growth inhibition) ([1]; Table 1) [µM]	GI50 (HOP-62) [nM]	GI50 (OVCAR-3) [nM]	GI50 (UACC-62) [nM]	GI50 (MCF7) [nM]	GI50 (HCT-116) [nM]	GI50 (SF-539) [nM]	GI50 (DU-145) [nM]	GI50 (SN12C) [nM]	MGM (mean graph midpoint for growth inhibition) ([1]; Table 2) [µM]
		COc1cc2c3c(n(CCCN(C)C)c(=O)c2cc1OC)-c1ccccc1C3=O [Compound 34, reference compound]	11500	5890	6610	6170	2450	6170	4470	11000	6.17									
+ (+ weak activity;)		Cl.O=C1c2cccnc2-c2c1c1ccccc1c(=O)n2CCCNCCO [Compound 30, 7-Aza-5,6-dihydro-6-(3-(2-hydroxyethylamino)propyl)-5,11-dioxo-11H-indeno[1,2-c]isoquinoline Hydrochloride]									1.29	1410	1550	3090	480	300	870	410	760	
		CN(C)CCCn1c2c(c3ccc([N+](=O)[O-])cc3c1=O)C(=O)c1cccnc1-2.Cl [Compound 20, 7-Aza-5,6-dihydro-6-(3-dimethylaminopropyl)-3-nitro-5,11-dioxo-11H-indeno[1,2-c]isoquinoline Hydrochloride]									1.86	2350	2290	3310	360	440	2690	930	1000	
++		O=C1c2cccnc2-c2c1c1ccccc1c(=O)n2CCCn1ccnc1 [Compound 28, 7-Aza-5,6-dihydro-6-(3-(1H-imidazol-1-yl)propyl)-5,11-dioxo-11H-indeno[1,2-c]isoquinoline]									7.24	7240	8710	35500	3390	1200	5130	2880	3720	
		Cl.O=C1c2cccnc2-c2c1c1ccccc1c(=O)n2CCCN1CCOCC1 [Compound 21, 7-Aza-5,6-dihydro-6-(3-morpholinopropyl)-5,11-dioxo-11H-indeno[1,2-c]iso-quinoline Hydrochloride]									15.49	35500	28200	> 100000	2750	1860	5620	3550	5370	
	++++ (++++ similar activity as 1 μM 1.)	COc1cnc2c(c1)C(=O)c1c-2n(CCCN2CCOCC2)c(=O)c2cc([N+](=O)[O-])ccc12 [Compound 66, 7-Aza-5,6-dihydro-6-(3-(4-morpholino)propyl)-9-methoxy-3-nitro-5,11-dioxo-11H-indeno[1,2-c]isoquinoline]										51	110	40	20	50	35	40	43	0.085
	+++	COc1cnc2c(c1)C(=O)c1c-2n(CCCN(C)C)c(=O)c2ccccc12 [Compound 63, 7-Aza-5,6-dihydro-6-(3-dimethylaminopropyl)-9-methoxy-5,11-dioxo-11H-indeno[1,2-c]isoquinoline]										300	940	540	210	340	570	300	260	0.40
		COc1cc2c3c(n(CCCN)c(=O)c2cc1OC)-c1ncccc1C3=O.Cl [Compound 32, 7-Aza-5,6-dihydro-6-(3-aminopropyl)-2,3-dimethoxy-5,11-dioxo-11H-indeno[1,2-c]isoquinoline Hydrochloride]									2.09	3020	1580	8130	49000	380	2190	1620	2880	
		COc1cc2c3c(n(CCCNCCO)c(=O)c2cc1OC)-c1ncccc1C3=O.Cl [Compound 31, 7-Aza-5,6-dihydro-6-(3-(2-hydroxyethylamino)propyl)-2,3-dimethoxy-5,11-dioxo-11H-indeno[1,2-c]isoquinoline Hydrochloride]									0.29	300	340	120	74	150	260	320	230	
++	++	COc1cc2c3c(n(CCCN4CCOCC4)c(=O)c2cc1OC)-c1ncccc1C3=O [Compound 22, 7-Aza-5,6-d hydro-6-(3-morpholinopropyl)-2,3-dimethoxy-5,11-dioxo-11H-indeno[1,2-c]isoquinolineHydrochloride]									0.30	300	370		52	220	290	310	520	0.30

SMILES	Top1 Cleavage (human recombinant Top1; Table 1)	Top1 Cleavage (human recombinant Top1; Table 2)	GI50 (HOP-62; Homo sapiens, HOP-62, 48 h, read-out: cytotoxicity (GI50) lung HOP-62, 48 h, sulforhodamine B, single determination, Table 1) [nM]	GI50 (OVCAR-3; Homo sapiens, OVCAR-3, 48 h, read-out: cytotoxicity (GI50) ovarian OVCAR-3, 48 h, sulforhodamine B, single determination, Table 1) [nM]	GI50 (UACC-62; Homo sapiens, UACC-62, 48 h, read-out: cytotoxicity (GI50) melanoma UACC-62, 48 h, sulforhodamine B, single determination, Table 1) [nM]	GI50 (MCF7; Homo sapiens, MCF7, 48 h, read-out: cytotoxicity (GI50) breast MCF7, 48 h, sulforhodamine B, single determination, Table 1) [nM]	GI50 (HCT-116; Homo sapiens, HCT-116, 48 h, read-out: cytotoxicity (GI50) colon HCT-116, 48 h, sulforhodamine B, single determination, Table 1) [nM]	GI50 (SF-539; Homo sapiens, 48 h, read-out: cytotoxicity (GI50) CNS SF-539, 48 h, sulforhodamine B, single determination, Table 1) [nM]	GI50 (DU-145; Homo sapiens, DU-145, 48 h, read-out: cytotoxicity (GI50) prostate DU-145, 48 h, sulforhodamine B, single determination, Table 1) [nM]	GI50 (SN12C; Homo sapiens, SN12C, 48 h, read-out: cytotoxicity (GI50) renal SN12C, 48 h, sulforhodamine B, single determination, Table 1) [nM]	MGM (mean graph midpoint for growth inhibition) ([1]; Table 1) [µM]	GI50 (HOP-62) [nM]	GI50 (OVCAR-3) [nM]	GI50 (UACC-62) [nM]	GI50 (MCF7) [nM]	GI50 (HCT-116) [nM]	GI50 (SF-539) [nM]	GI50 (DU-145) [nM]	GI50 (SN12C) [nM]	MGM (mean graph midpoint for growth inhibition) ([1]; Table 2) [µM]
COc1cc2c3c(n(CCCN(C)C)c(=O)c2cc1OC)-c1ccncc1C3=O.O=C(O)C(F)(F)F [Compound 127, 9-Aza-5,6-dihydro-6-(3-dimethylaminopropyl)-2,3-dimethoxy-5,11-dioxo-11H-indeno[1,2-]isoquinoline Trifluoroacetate]		+ (+ weak activity;)										6500	7400	> 100000	3900	620	12000	2900	8500	6.5
COc1cc2c3c(n(CCCN4CCOCC4)c(=O)c2cc1OC)-c1ccncc1C3=O.O=C(O)C(F)(F)F [Compound 128, 9-Aza-5,6-dihydro-6-(3-(4-morpholino)propyl)-2,3-dimethoxy-5,11-dioxo-11H-indeno[1,2-c]isoquinoline Trifluoroacetate]		++										5000	12000	85000	1900	390	> 100000	7600	5900	9.5
